Data from patent US10351570B2, “Compounds and uses thereof” (Kala Pharmaceuticals, Inc., priority 2013, dated 2019).
Like-named read-outs stand apart in the source and are kept apart here.

How the values were obtained:
[1] = Physical and chemical stability of I-2 solutions at room temperature; format: physicochemical; conditions: F127 (0.5%), 20 mM Tris (pH 8); precipitation
Protocol: Solutions of I-2 were formulated with F127 or Tween 80, and under a range of pH values. Briefly, I-2 was first completely solubilized using an acidic solution (0.1 N HCl) at a high concentration of […]. The final formulation was diluted to a solution consisting of 0.5% (w/v) I-2 into buffered solution containing F127 or Tween 80 as described in Table 5. Following dilution, the pH of the formulations was measured using pH indicator strips (PEHANON) and confirmed to be within expected range (±0.5 units of target pH).
Physical and chemical stability of the solutions at room temperature (20-25° C.) were assessed after 7-10 days (tfinal). Physical instability in a solution can manifest as the precipitation and sedimentation of the drug of interest and excipients over time. To assess physical stability, the formulations at tfinal were first filtered through a 300 kDa modified polyethersulfone filter membrane (Nanosep) to remove any precipitate in the solution. The concentration of I-2 in the filtrates was then measured and compared to that at t=0. The purity of I-2 in the unfiltered solution was also evaluated at tfinal, to further confirm chemical stability. This parameter is defined by the area under the signal peak that is attributed to compound I-2 as a percentage of all peaks reported by in the sample by HPLC (% peak area).

[2] = Nanoparticle mobility in human cervicovaginal mucus (dark field microscopy); conditions: low pH of CVM
Protocol: In order to determine whether the generated nanoparticles have reduced interactions with mucins and are therefore able to move within mucus without becoming trapped, particles were incubated with human cervicovaginal mucus (CVM) and observed via dark field microscopy. In a typical experiment, 51 μL of the nanoparticle suspension was added to 20 μl of CVM. Observations were made in a minimum of three distinct and randomly selected areas of the CVM sample. Control particles with known behavior were used to qualify the CVM sample as appropriate for the assay.

[3] = Draize-Ocular Irritation assessment; format: in vivo, Dutch-belted rabbits; conditions: topical 0.5% solution, 50 μL BID 5 days
Protocol: (§1) In this example, the formulation consisted of 0.5% I-2, 0.5% F127, in 20 mM citrate buffer pH 6.0 and NaCl (added to produce isotonic formulation).
(§2) The portion of the retina and choroid collected and analyzed was an 8-mm round punch where the macula is located in humans.

[4] = PK study after topical ocular administration of compound I-2 solution; format: in vivo, Dutch-belted rabbits; conditions: Dutch-belted, rabbit, topical or ocular, 50 μL of 0.5% solution, topical 0.5% solution, 50 μL BID 5 days; for AUC(0-t): read-out: AUC0-12 hr
Protocol: as §1, §2

[5] = Milling with Pluronic F127 into mucus penetrating particles; particle size by dynamic light scattering; format: physicochemical; conditions: formulated as MPP, milled with Pluronic F127 in DPBS; for Particle Size: dynamic light scattering
Description: Compounds of the present invention synthesized in accordance with the preceding Examples were formulated as mucus penetrating particles (MPP). Specifically, compounds I-2, compound I-5, and compound I-6 were each milled in the presence of Pluronic F127 (F127) to determine whether F127 1) aids particle size reduction to several hundreds of nanometers and 2) physically (non-covalently) coats the surface of generated nanoparticles with a mucoinert coating that would minimize particle interactions with mucus constituents and prevent mucus adhesion.
A milling procedure was employed in which an aqueous dispersion containing coarse drug particles and Pluronic F127 (F127) was milled with grinding medium until particle size was reduced below 400 nm as measured by dynamic light scattering. Table 4 lists the size of particles and polydispersity index (a measure of the width of the particle size distribution) generated using this technique. In this example suspensions were buffered using DPBS (Dulbecco's Phosphate-Buffered Saline) which yields a suspension that is both isotonic and has a physiologically relevant pH.

| Compound | physical stability of solution [1] | solubility in CVM [2] | Draize-Ocular Irritation [3] | Cmax ([4]; Choroid (8-mm punch)) [nM] | Tmax ([4]; Choroid (8-mm punch)) [h] | AUC(0-t) ([4]; Choroid (8-mm punch)) [µM·h] | Cmax ([4]; Plasma) [nM] | Tmax ([4]; Plasma) [h] | AUC(0-t) ([4]; Plasma) [µM·h] | half-life ([4]; Plasma, read-out: t½ (converted)) [h] | Cmax ([4]; Retina (8-mm punch)) [nM] | Tmax ([4]; Retina (8-mm punch)) [h] | AUC(0-t) ([4]; Retina (8-mm punch)) [µM·h] | Polydispersity Index (PDI) [5] | Particle Size [5] [nm] |
| --- | --- | --- | --- | --- | --- | --- | --- | --- | --- | --- | --- | --- | --- | --- | --- |
| Cc1cc(C(=O)Nc2cc(Oc3ccc4nc(NC(=O)CN5CC[C@H](N(C)C)C5)cn4n3)ccc2C)n(C)n1 [Compound I-2] | major physical instability | soluble | no irritation | 1790 | 2 | 12.5 | 5.96 | 0.5 | 0.0256 | 3.63 | 218 | 0.5 | 2.06 | – | – |
| Cc1cc(C(=O)Nc2cc(Oc3ccc4nc(NC(=O)NC5COC5)cn4n3)ccc2C)n(C)n1 [Compound I-5] | – | – | – | – | – | – | – | – | – | – | – | – | – | 0.160 | 276 |
| Cc1ccc(Oc2ccc3nc(NC(=O)CC4COC4)cn3n2)cc1NC(=O)c1cccc(F)c1 [Compound I-6] | – | – | – | – | – | – | – | – | – | – | – | – | – | 0.206 | 245 |
